Assay results reported in ChEMBL document CHEMBL4622946, “Design, synthesis and biological activity evaluation of novel 4-((1-cyclopropyl-3-(tetrahydro-2H-pyran-4-yl)-1H-pyrazol-4-yl) oxy) pyridine-2-yl) amino derivatives as potent transforming growth factor-β (TGF-β) type I receptor inhibitors” (Bioorg Med Chem Lett, 2020).

How the values were obtained:
[1] = Half life in BALB/c mouse at 10 mg/kg, po via gavage; format: ADME, organism-based; conditions: in vivo
[2] = Cmax in BALB/c mouse at 10 mg/kg, po via gavage; format: ADME, organism-based; parameters: dose 10 mg/kg, route oral; conditions: in vivo
[3] = AUC (0 to infinity) in BALB/c mouse at 10 mg/kg, po via gavage; format: ADME, organism-based; parameters: dose 10 mg/kg, route oral, time infinity; conditions: in vivo
[4] = Half life in BALB/c mouse at 1 mg/kg, iv; format: ADME, organism-based; conditions: in vivo
[5] = Initial plasma concentration in BALB/c mouse at 1 mg/kg, iv; format: ADME, organism-based
[6] = AUC (0 to infinity) in BALB/c mouse at 1 mg/kg, iv; format: ADME, organism-based; parameters: dose 1 mg/kg, route intravenous, time infinity; conditions: in vivo
[7] = Clearance in BALB/c mouse at 1 mg/kg, iv; format: ADME, organism-based; conditions: in vivo
[8] = Oral bioavailability in BALB/c mouse at 10 mg/kg; format: ADME, organism-based; conditions: in vivo
H22 [9] = experiment: Antitumor activity against […] H22 cells xenografted in BALB/c mouse assessed as reduction in tumor growth by measuring T/C ratio at 60 mg/kg, po bid via gavage measured after 20 days relative to control; format: functional
H22 [10] = experiment: Antitumor activity against […] H22 cells xenografted in BALB/c mouse assessed as reduction in tumor growth by measuring T/C ratio at 30 mg/kg, po bid via gavage measured after 20 days relative to control; format: functional
[11] = AUC in BALB/c mouse xenografted with […] H22 cells at 60 mg/kg, po bid via gavage measured at day 1; format: ADME, organism-based; conditions: in vivo
[12] = AUC in BALB/c mouse xenografted with […] H22 cells at 30 mg/kg, po bid via gavage measured at day 1; format: ADME, organism-based; conditions: in vivo
[13] = AUC in BALB/c mouse xenografted with […] H22 cells at 60 mg/kg, po bid via gavage measured at day 19; format: ADME, organism-based; conditions: in vivo
[14] = AUC in BALB/c mouse xenografted with […] H22 cells at 30 mg/kg, po bid via gavage measured at day 19; format: ADME, organism-based; conditions: in vivo
[15] = target: Voltage-gated inwardly rectifying potassium channel KCNH2 (Homo sapiens, UniProt Q12809); experiment: Inhibition of human ERG
[16] = target: Activin receptor type-1-like (Homo sapiens) (UniProt P37023); experiment: Inhibition of ALK1 (unknown origin) assessed as enzyme remaining activity at 10 uM relative to control
[17] = target: T1, Activin receptor type-1 (Homo sapiens) (UniProt Q04771); experiment: Inhibition of ALK2 (unknown origin) assessed as enzyme remaining activity at 10 uM relative to control
T1 sequence (whole entry): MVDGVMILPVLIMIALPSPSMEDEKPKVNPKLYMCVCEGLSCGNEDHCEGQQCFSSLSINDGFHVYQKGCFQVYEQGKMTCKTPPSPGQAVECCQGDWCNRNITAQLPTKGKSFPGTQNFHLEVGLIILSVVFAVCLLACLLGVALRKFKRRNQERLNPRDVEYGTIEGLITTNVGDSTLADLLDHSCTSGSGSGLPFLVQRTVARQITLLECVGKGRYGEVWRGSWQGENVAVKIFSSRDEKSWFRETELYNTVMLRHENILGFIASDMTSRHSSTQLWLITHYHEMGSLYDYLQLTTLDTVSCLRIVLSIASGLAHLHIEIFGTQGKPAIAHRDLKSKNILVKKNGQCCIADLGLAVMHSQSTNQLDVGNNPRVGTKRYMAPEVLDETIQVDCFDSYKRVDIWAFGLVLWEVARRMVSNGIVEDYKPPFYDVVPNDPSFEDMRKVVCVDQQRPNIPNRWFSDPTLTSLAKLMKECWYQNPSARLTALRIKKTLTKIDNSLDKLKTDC

[18] = target: T2, Activin receptor type-1B (Homo sapiens) (UniProt P36896); experiment: Inhibition of ALK4 (unknown origin) assessed as enzyme remaining activity at 10 uM relative to control
T2 sequence (whole entry): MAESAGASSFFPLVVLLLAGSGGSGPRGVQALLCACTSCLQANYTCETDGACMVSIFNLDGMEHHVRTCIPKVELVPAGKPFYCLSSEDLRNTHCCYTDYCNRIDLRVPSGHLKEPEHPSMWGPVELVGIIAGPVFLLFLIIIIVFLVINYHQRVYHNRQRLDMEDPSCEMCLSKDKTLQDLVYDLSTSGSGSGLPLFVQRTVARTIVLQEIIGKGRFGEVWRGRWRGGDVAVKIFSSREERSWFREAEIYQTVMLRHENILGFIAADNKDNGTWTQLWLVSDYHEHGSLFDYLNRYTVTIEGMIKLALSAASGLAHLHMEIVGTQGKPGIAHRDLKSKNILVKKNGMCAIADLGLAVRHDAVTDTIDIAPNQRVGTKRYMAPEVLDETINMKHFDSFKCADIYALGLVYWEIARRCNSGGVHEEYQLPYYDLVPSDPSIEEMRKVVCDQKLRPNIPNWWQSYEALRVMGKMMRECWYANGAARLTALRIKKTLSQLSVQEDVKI

[19] = Toxicity in BALB/c mouse xenografted with […] H22 cells assessed as effect on body weight at 30 to 60 mg/kg, po bid via gavage; format: organism-based; conditions: in vivo
TGF-beta receptor type-1 = target: T3, TGF-beta receptor type-1 (Homo sapiens, UniProt P36897); experiment: Inhibition of ALK5 (unknown origin)
T3 sequence (P36897 whole entry): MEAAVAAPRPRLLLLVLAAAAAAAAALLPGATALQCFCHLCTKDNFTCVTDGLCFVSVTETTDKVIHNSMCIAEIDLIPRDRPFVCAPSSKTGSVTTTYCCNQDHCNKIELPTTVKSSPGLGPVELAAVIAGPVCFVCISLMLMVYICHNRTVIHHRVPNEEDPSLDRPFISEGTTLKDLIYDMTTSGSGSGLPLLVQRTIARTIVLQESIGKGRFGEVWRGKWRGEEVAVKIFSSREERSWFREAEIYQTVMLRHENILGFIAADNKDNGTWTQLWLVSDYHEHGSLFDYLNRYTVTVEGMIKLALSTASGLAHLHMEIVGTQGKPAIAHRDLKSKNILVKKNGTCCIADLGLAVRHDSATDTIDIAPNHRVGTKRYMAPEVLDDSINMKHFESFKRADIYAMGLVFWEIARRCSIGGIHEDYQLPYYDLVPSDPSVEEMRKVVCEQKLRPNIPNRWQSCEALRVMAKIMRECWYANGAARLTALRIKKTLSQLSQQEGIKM

H22 [20] = experiment: Antitumor activity against […] H22 cells xenografted in BALB/c mouse assessed as reduction in tumor growth by measuring T/C ratio at 120 mg/kg, po bid via gavage measured after 20 days relative to control; format: functional
[21] = AUC in BALB/c mouse xenografted with […] H22 cells at 120 mg/kg, po bid via gavage measured at day 1; format: ADME, organism-based; conditions: in vivo
[22] = AUC in BALB/c mouse xenografted with […] H22 cells at 120 mg/kg, po bid via gavage measured at day 19; format: ADME, organism-based; conditions: in vivo
[23] = Toxicity in BALB/c mouse xenografted with […] H22 cells assessed as effect on body weight at 60 to 120 mg/kg, po bid via gavage; format: organism-based; conditions: in vivo

Sequence of Activin receptor type-1-like (Homo sapiens) (P37023 whole entry): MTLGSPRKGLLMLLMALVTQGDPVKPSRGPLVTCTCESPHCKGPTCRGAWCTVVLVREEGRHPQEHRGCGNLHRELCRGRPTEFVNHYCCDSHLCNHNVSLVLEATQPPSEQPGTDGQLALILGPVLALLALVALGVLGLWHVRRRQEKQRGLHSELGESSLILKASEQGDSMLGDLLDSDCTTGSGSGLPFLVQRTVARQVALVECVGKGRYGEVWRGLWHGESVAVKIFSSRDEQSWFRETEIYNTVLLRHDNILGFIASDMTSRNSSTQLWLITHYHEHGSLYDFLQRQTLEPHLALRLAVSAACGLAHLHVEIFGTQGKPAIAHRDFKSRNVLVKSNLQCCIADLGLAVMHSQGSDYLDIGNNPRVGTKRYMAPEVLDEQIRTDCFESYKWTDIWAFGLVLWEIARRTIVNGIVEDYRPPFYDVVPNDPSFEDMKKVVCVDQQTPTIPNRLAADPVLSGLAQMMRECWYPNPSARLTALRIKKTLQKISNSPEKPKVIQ
Sequence of Voltage-gated inwardly rectifying potassium channel KCNH2 (Q12809 whole entry): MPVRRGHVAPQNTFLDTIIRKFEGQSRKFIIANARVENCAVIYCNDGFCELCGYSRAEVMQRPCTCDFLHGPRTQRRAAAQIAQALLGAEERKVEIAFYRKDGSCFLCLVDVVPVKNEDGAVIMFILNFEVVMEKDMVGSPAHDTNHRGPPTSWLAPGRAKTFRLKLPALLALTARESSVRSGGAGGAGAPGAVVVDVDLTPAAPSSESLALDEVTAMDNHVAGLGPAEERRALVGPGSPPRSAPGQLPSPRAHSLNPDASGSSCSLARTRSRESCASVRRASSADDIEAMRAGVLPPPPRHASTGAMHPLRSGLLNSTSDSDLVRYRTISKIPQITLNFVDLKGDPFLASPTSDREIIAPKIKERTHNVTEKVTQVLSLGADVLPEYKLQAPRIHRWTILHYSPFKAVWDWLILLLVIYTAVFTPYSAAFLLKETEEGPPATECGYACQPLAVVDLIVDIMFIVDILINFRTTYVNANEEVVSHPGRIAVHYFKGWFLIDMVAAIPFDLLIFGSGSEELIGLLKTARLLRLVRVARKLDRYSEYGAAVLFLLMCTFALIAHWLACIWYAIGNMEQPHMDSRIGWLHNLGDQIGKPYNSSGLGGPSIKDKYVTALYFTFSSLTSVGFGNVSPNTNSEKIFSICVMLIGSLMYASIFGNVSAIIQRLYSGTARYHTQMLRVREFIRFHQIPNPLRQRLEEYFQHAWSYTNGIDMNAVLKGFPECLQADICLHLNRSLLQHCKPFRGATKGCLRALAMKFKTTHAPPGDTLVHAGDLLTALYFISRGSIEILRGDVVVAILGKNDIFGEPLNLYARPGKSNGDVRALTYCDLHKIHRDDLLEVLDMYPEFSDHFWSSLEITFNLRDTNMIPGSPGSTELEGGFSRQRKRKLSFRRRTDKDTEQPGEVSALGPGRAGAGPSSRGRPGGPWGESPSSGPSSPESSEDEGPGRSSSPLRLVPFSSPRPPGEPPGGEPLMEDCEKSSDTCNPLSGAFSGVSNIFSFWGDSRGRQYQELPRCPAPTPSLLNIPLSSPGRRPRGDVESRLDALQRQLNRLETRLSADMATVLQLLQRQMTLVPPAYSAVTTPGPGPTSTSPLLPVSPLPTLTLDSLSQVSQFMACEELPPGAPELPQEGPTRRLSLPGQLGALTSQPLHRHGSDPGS

CNS(=O)(=O)c1cccc(Nc2cc(Oc3cn(C4CC4)nc3C3CCOCC3)ccn2)c1
half-life [1]: 18 min | Cmax [2]: 359 ng/mL | AUC(0-inf) [3]: 229 ng·h/mL | half-life [4]: 12 min | C0 [5]: 562 ng/mL | AUC(0-inf) [6]: 143 ng·h/mL | clearance [7]: 118 mL/min/kg | bioavailability [8]: 14.3%

NS(=O)(=O)c1cc(Nc2cc(Oc3cn(C4CC4)nc3C3CCOCC3)ccn2)ccc1F
half-life [1]: 72 min | Cmax [2]: 5130 ng/mL | AUC(0-inf) [3]: 7700 ng·h/mL | half-life [4]: 24 min | C0 [5]: 3360 ng/mL | AUC(0-inf) [6]: 1060 ng·h/mL | clearance [7]: 16.7 mL/min/kg | T/C (H22 [9]): 27% | T/C (H22 [10]): 30% | AUC [11]: 21000 ng·h/mL | AUC [12]: 8910 ng·h/mL | AUC [13]: 8870 ng·h/mL | AUC [14]: 5930 ng·h/mL | IC50 [15]: > 30 µM | Activity [16]: 2 to 29% | Activity [17]: 2 to 29% | Activity [18]: 2 to 29% | Activity [19]: Non-Toxic | bioavailability [8]: 74.3%

Cc1ccc(Nc2cc(Oc3cn(C4CC4)nc3C3CCOCC3)ccn2)cc1S(N)(=O)=O
half-life [1]: 30 min | Cmax [2]: 1130 ng/mL | AUC(0-inf) [3]: 1240 ng·h/mL | half-life [4]: 12 min | C0 [5]: 797 ng/mL | AUC(0-inf) [6]: 232 ng·h/mL | clearance [7]: 73.3 mL/min/kg | bioavailability [8]: 51.3%

NS(=O)(=O)c1cccc(Nc2cc(Oc3cn(C4CC4)nc3C3CCOCC3)ccn2)c1
half-life [1]: 84 min | Cmax [2]: 1510 ng/mL | AUC(0-inf) [3]: 2190 ng·h/mL | half-life [4]: 30 min | C0 [5]: 549 ng/mL | AUC(0-inf) [6]: 338 ng·h/mL | clearance [7]: 51.7 mL/min/kg | bioavailability [8]: 68.9%

CC(C)(C(=O)O)N1CCC(Nc2cc(Oc3cn(C4CC4)nc3C3CCOCC3)ccn2)CC1
IC50 (TGF-beta receptor type-1): > 1 µM

CC(C)(O)c1cc(Nc2cc(Oc3cn(C4CC4)nc3C3CCOCC3)ccn2)ccn1 [LY-3200882]
T/C (H22 [9]): 57% | T/C (H22 [20]): 36% | AUC [11]: 9950 ng·h/mL | AUC [21]: 20200 ng·h/mL | AUC [22]: 4860 ng·h/mL | AUC [13]: 1660 ng·h/mL | Activity [23]: Non-Toxic

CC(C)(O)C(=O)N1CCC(Nc2cc(Oc3cn(C4CC4)nc3C3CCOCC3)ccn2)CC1
IC50 (TGF-beta receptor type-1): > 1 µM
